According to US20100317733A1, “USE OF CIS-EPOXYEICOSANTRIENOIC ACIDS AND INHIBITORS OF SOLUBLE EPOXIDE HYDROLASE TO REDUCE PULMONARY INFILTRATION BY NEUTROPHILS” (THE REGENTS OF THE UNIVERSITY OF CALIFORNIA, priority 2004, published 2010):
“Also recorded” adds a separate entry of the source. One block for each molecule: values may come before it.

Key:
[1] = Pharmacokinetics in SH rats following subcutaneous administration; type: in vivo
Procedure: Equipment. LC-MS-MS analysis was performed using a Micromass Quattro Ultima triple quadrupole tandem mass spectrometer (Micromass, Manchester, UK) equipped with atomospheric pressure ionization source [atomospheric z-spray pressure chemical ionization (APcI) or electrospray ionization (ESI) interface]. The HPLC system consisted of a Waters model 2790 separations module (Waters Corporation, Milford, Mass.) including an autosampler with refrigerated sample compartment and as inline vacuum degasser and Waters model 2487 dual λ absorbance detector (Waters Corporation). An XTerra™MS C18 column (30×2.1 mm I. D., 3.5 μm; Waters Corporation) was used with a flow rate of 0.3 mL/min at ambient temperature. Data were manipulated with MassLynx software (Ver. 4.0).
LC-MS-MS conditions. The ESI mass spectrometer was operated in the positive ion mode with a capillary voltage at 1.0 kV. Cone gas (N2) and desolvation gas (N2) were maintained at flow rates of 130 and 630 L/h, respectively. The source and the desolvation temperature were set at 100° C. and 300° C., respectively. […] Quantitative analysis was performed in the multiple reaction monitoring (MRM) mode with a dwell time of 300 ms. Ultra pure argon (99.9999%) was used as a collision gas at a pressure of 2.5 milli-torr for collision-induced dissociation (CID). […]
Pharmacokinetics analysis. […] AUCt was calculated by the linear/log trapezoidal rule.

sEH = molecular target: T1, sEH (Homo sapiens, UniProt P34913); assay: Inhibition of soluble epoxide hydrolase (sEH); type: biochemical
T1 sequence (P34913 1-555): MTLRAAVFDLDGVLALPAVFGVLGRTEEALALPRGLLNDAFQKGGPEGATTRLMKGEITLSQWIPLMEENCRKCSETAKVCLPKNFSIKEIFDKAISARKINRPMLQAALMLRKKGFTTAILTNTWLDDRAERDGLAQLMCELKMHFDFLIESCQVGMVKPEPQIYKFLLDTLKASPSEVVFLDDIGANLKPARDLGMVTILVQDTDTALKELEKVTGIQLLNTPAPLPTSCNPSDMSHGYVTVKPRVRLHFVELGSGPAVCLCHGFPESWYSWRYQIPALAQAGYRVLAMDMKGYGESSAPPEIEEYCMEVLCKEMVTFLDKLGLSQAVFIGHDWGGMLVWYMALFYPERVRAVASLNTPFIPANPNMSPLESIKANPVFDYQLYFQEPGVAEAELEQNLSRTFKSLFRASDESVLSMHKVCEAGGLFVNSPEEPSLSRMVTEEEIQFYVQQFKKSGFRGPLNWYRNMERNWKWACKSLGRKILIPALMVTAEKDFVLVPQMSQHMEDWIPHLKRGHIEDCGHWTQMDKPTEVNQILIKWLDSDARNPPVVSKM
Text: The enzyme also can be detected based on the binding of specific ligands to the catalytic site which either immobilize the enzyme or label it with a probe such as dansyl, fluoracein, luciferase, green fluorescent protein or other reagent.
The assays are normally carried out with a recombinant enzyme following affinity purification.

[2] = Metabolic stability (stated, no method)
[3] = system: tobacco smoke-induced inflammation in the lungs of rats; details: Smith 2002; cited from earlier work
[4] = system: cells in BAL from rats exposed to tobacco smoke; assay: Bronchoalveolar lavage (BAL) cell counts and differentials in rats exposed to tobacco smoke for 3 days; type: in vivo, SH rats; details: for % Eosinophils / % Lymphocytes / % Macrophages / % Neutrophils: cell differential in BAL, 3 days, mean ± SE (n = 4)
Text: Animals. Healthy, 11-week-old male spontaneously hypertensive (“SH”) (SHR/NCrlBR) rats (derived from WKY rats by phenotypic segregation of the hypertensive trait and inbreeding) were purchased from Charles River Laboratories (Portage, Mich.) and quarantined for 1 week prior to exposure to tobacco smoke. Animals were handled in accordance with standards established by the U.S. Animal Welfare Acts set forth in National Institutes of Health guidelines and the University of California, Davis Animal Care and Use Committee. The rats were housed in plastic cages with TEK-Chip pelleted paper bedding (Harlan Teklad, Madison, Wis.) and maintained on a 12 hour light/12 hour dark cycle. All animals had access to water and Laboratory Rodent Diet 5001 purchased from LabDiet (Brentwood, Mo.) ad libitum before, during and after exposures.
Subcutaneous Implantation of EETs for Tobacco Smoke Exposures. Wax formulations containing EETs were implanted subcutaneously 1 day prior to onset of exposure to tobacco smoke. Animals were implanted with the EETs formulation on the day before the first day of exposure. Four animals from the control group and four animals from the tobacco smoke-exposed group were implanted with the EETs formulation. The approach of a single subcutaneous implantation for the 3-day study was selected to minimize stress to animals from anesthesia.
Subcutaneous injection of AUDA-nBE for Tobacco Smoke Exposures. AUDA-nBE (7 mg/1 ml corn oil) was subcutaneously administered in SH rats at a dose of 10 mg/kg bodyweight. The total volume injected was 0.36 to 0.46 ml. Animals were injected with AUDA-nBE each day prior to exposure. Doses of AUDA-nBE used in this study were selected based on results from preliminary pharmacokinetic studies in mice and rats. These doses were selected to provide optimal efficacy and minimal toxicity over a three-day period. Four animals from the control group and four animals from the tobacco smoke-exposed group were injected with AUDA-nBE. Four animals with EETs implants from the control group and four animals with EETs implants from the tobacco smoke-exposed group were injected with AUDA-nBE. In addition, four control animals and four tobacco smoke-exposed animals were injected with corn oil using the same protocol as the AUDA-nBE -injected animals.
Tobacco Smoke Exposure. Rats were exposed to a mixture of sidestream and mainstream cigarette smoke in a smoking apparatus (Teague, S. V. et al., Inhal. Toxicol. 6:79-93 (1994)). The cigarettes were humidified 2R4F research cigarettes (Tobacco Health Research Institute; Lexington, Ky.). An automatic metered puffer was used to smoke the cigarettes under Federal Trade Commission conditions (35 ml puff, 2 sec duration, 1 puff per min). The smoke was collected in a chimney, diluted with filtered air, and delivered to whole-body exposure chambers. The exposures were characterized for three major constituents of cigarette smoke; nicotine, carbon monoxide, and total suspended particulates (TSP). […] Carbon monoxide was measured every 30 minutes, TSP every 2 hours, and nicotine once per day (approximately midway through the exposure period).
Bronchoalveolar Lavage. Established protocols were followed for bronchoalveolar lavage (BAL) of animals (Gossart, S. et al., J. Immunol. 156:1540-1548 (1996)). Eighteen hours after the last exposure to tobacco smoke, animals were anesthetized with an overdose of sodium pentobarbital. The trachea was cannulated and the lung lavaged with one aliquot of Ca^2+/Mg^2+-free phosphate buffered saline (PBS, pH 7.4). The volume of the aliquot was equal to 35 ml/kg body weight (approximately 90% of total lung capacity). The aliquot was instilled into the lungs three times before final collection. The BAL fluid (BALF) was immediately centrifuged at 250×g for 10 min at 4° C. to remove cells. The cell pellet was then resuspended in PBS and the cells counted with a hemocytometer. […]

- half-life ([1]; blood, single subcutaneous dose of AUDA-nBE 10 mg/kg): 22 h
SMILES: O=C(O)CCCCCCCCCCCNC(=O)NC12CC3CC(CC(C3)C1)C2 [AUDA]

- activity as an inhibitor of sEH (sEH): particularly high activity
- metabolic stability [2]: metabolically stable
SMILES: CCCCCCCCCCCCNC(=O)NC12CC3CC(CC(C3)C1)C2 [ADU, N-Adamantyl-N′-dodecyl urea]

SMILES: CCN1C=CN(CC)C1=C1C2=NC(=C(c3n(CC)cc[n+]3CC)C3=NC(=C(c4n(CC)cc[n+]4CC)c4ccc([n-]4)C(c4n(CC)cc[n+]4CC)=C4C=CC1=N4)C=C3)C=C2.[Cl-].[Cl-].[Cl-].[Cl-].[Cl-].[Mn+3] [AEOL 10150]
- tobacco smoke-induced inflammation in the lungs [3]: decrease

- metabolism of the prodrug ([1]; subcutaneous administration): metabolized to AUDA
SMILES: CCCCOC(=O)CCCCCCCCCCCNC(=O)NC12CC3CC(CC(C3)C1)C2 [AUDA-nBE, 12-(3-adamantane-1-yl-ureido)-dodecanoic acid butyl ester]
- % Eosinophils ([4]; filtered air): 0.15 ± 0.10%
- % Lymphocytes ([4]; filtered air): 0.55 ± 0.15%
- % Macrophages ([4]; filtered air): 92.1 ± 1.6%
- % Neutrophils ([4]; filtered air): 7.3 ± 1.8%
- % Eosinophils ([4]; tobacco smoke): 0.10 ± 0.10%
- % Lymphocytes ([4]; tobacco smoke): 0.25 ± 0.10 %
- % Macrophages ([4]; tobacco smoke): 62.9 ± 1.8 %
- % Neutrophils ([4]; tobacco smoke): 36.8 ± 1.6 %
- reduction in the number of neutrophils found in the lungs ([4]; rats, animal model of COPD (tobacco smoke), FIG. 4): ~55%
- total number of cells in BALF ([4]; tobacco smoke 3 days, treatment before exposure, FIG. 2): significantly decreased
- number of BALF macrophages ([4]; tobacco smoke 3 days, treatment before exposure, FIG. 3): significantly decreased; also recorded: significant reductions
- number of BALF neutrophils ([4]; tobacco smoke 3 days, treatment before exposure, FIG. 4): significantly decreased; also recorded: significant reductions
- number of BALF lymphocytes ([4]; tobacco smoke 3 days, treatment before exposure, FIG. 5): decreased the number of BALF lymphocytes to levels not significantly different from filtered air controls; also recorded: significant reductions
